Measured values from US6399318B1, “Immunoassay for phthalic acid esters” (Otsuka Pharmaceutical Co., Ltd., priority 2000, dated 2002).
Converted amounts (≈) assume the structure as drawn. Where a name gives a salt, the structure may show the parent alone.

Columns and labels:
Format in all cases: binding, rabbit
[1] = test system: Antiserum RY778 (anti-phthalic acid ester antibody); test: ELISA for diethyl phthalate and cross-reactivity test; details: for Cross-reactivity: relative to diethyl phthalate (calculated as 100%) at B/B0=50, antiserum RY778; for IC50: competitive ELISA, antiserum RY778, biotinylated diethyl phthalate derivative as labeled antigen
Protocol: An ELISA system of the present invention for diethyl phthalate was designed in the following manner.
Diethyl phthalate was diluted as follows. A solution (857 μg/mL) of 12 mg of diethyl phthalate in 15.7% DMSO was 10-fold diluted with PBS buffer to give a standard solution (85.7 μg/ml). Five-fold dilution of the standard solution was repeated to give solutions of various concentrations (17.1 μg/ml, 3.4 μg/ml, 0.69 μg/ml, 0.137 μg/ml, 0.027 μg/ml and 0.005 μg/ml). These solutions were used as diluted standard antigen solutions.
Biotin-Arg-Lys-aminocapronyl-4-amino-diethyl phthalate synthesized in Example 1 (4) was diluted to 2 ng/ml with PBS buffer and used as a labeled antigen solution.
Antiserum RY778 (anti-phthalic acid ester antibody) synthesized in Example 4 was diluted 10,000-fold with PBS buffer (containing 0.1% BSA and 0.1% Tween 20) and used as an antibody solution.
Goat anti-rabbit IgG (Jackson Immuno Research) was diluted 200-fold with 0.1M phosphate buffer (pH8.0), and 100 μl of the diluted IgG was pipetted into each well of a 96-well microtiter plate (Maxi Sorp, Nunc). The plate was allowed to stand at 25° C. for 18 to 20 hours and then the supernatant was removed. Subsequently, 340 μl of Block Ace (Dainippon Pharmaceutical Co., Ltd.) was pipetted into each well and the plate was allowed to stand at 25° C. for 18 to 20 hours whereby blocking was completed.
After the plate was washed with a wash solution (0.15M NaCl containing 0.1% Tween 20) 5 times, 50 μl of a diluted standard antigen solution or sample, 50 μl of the labeled antigen solution and 100 μl of the antibody solution were added to each well. The culture was incubated at 4° C. for 18 to 20 hours. The plate was washed 3 times with 0.3 ml of the wash solution, and then 0.1 ml of a streptavidin-horseradish peroxidase conjugate (×2500) was added. After incubation at room temperature for 1.5 hours, the plate was washed with 0.3 ml of the wash solution 4 times and then a tetramethyl benzidine-containing colorant (0.1 ml, product of Sigma) was added. After 30 minutes of coloring, 2N sulfuric acid was added to stop the reaction. Absorbance at 450 nm was measured.
A standard curve for diethyl phthalate was obtained from the results of the diluted standard antigen solutions (FIG. 1). In FIG. 1, the ordinate denotes absorbance (at 450 nm) and the abscissa denotes standard antigen concentration (ng/ml).
The cross-reactivity of the antibody of the invention with diethyl phthalate and structurally similar compounds was tested using the ELISA system described in Example 5.
Cross-reactivity (%) is defined as the molar concentration of each test antigen, relative to the concentration of diethyl phthalate (calculated as 100%), at B/B0=50.

antiserum RY850 = test: ELISA for benzyl n-butyl phthalate and cross-reactivity test; details: ELISA system for benzyl n-butyl phthalate
Protocol: An ELISA system of the invention for benzyl n-butyl phthalate was designed in a manner similar to that of Example 5, using benzyl n-butyl phthalate (product of Kanto Chemical Co., Inc.) as a standard antigen, using biotin-Arg-Lys-aminocapronyl-4-(or 5-)amino-benzyl n-butyl phthalate of Example 2 (2-6) as a labeled antigen and using antiserum RY850 (10,000-fold diluted) as an antiserum. The antiserum RY850 was prepared as in Example 4, but the aminocapronyl-4-(or 5-)amino-benzyl n-butyl phthalate of Example 2 (2-5) was used in place of aminocapronyl-4-amino-diethyl phthalate.
A standard curve for benzyl n-butyl phthalate was obtained (FIG. 2). In FIG. 2, the ordinate denotes absorbance (at 492 nm) and the abscissa denotes standard antigen concentration (ng/ml).
The cross-reactivity of the antibody of the invention with benzyl n-butyl phthalate and structurally similar compounds was determined using the ELISA system described in Example 8.

antiserum RY849 = test: ELISA for di-n-butyl phthalate and cross-reactivity test; details: ELISA system for di-n-butyl phthalate
Protocol: An ELISA system of the invention for di-n-butyl phthalate was designed in a manner similar to that of Example 5, using di-n-butyl phthalate (product of Wako Pure Chemical Industries, Inc.) as a standard antigen, using biotin-Arg-Lys-aminocapronyl-4-amino-di-n-butyl phthalate of Example 2 (2-4) as a labeled antigen and using antiserum RY849 (10,000-fold diluted) as an antiserum. The antiserum RY849 was prepared as in Example 4, but the aminocapronyl-4-amino-di-n-butyl phthalate of Example 2 (2-3) was used in place of aminocapronyl-4-amino-diethyl phthalate of Example 4.
A standard curve for di-n-butyl phthalate was obtained (FIG. 3).
The cross-reactivity of the antibody of the invention with di-n-butyl phthalate and structurally similar substances was determined using the ELISA system described in Example 10.

| Compound | Cross-reactivity [1] [%] | IC50 [1] [µg/mL] | Cross-reactivity (antiserum RY849) [%] | also measured |
| --- | --- | --- | --- | --- |
| O=C(O)c1ccccc1 [Benzoic acid] | <0.001 | – | – | Cross-reactivity ([1]; listed as benzoic acid): less than 0.001% |
| CCCCC(CC)COC(=O)c1ccccc1C(=O)OCC(CC)CCCC (stereo not shown) [Di(2-ethylhexyl)phtalate] | <0.001 | – | – | – |
| CCCCOC(=O)c1ccccc1C(=O)OCCCC [Dibutyl phthalate] | 0.014 | 3.893432 (≈ 14 µM) | – | Cross-reactivity ([1]; listed as dibutyl phthalate): about 0.01%; Cross-reactivity (antiserum RY850): 38.9% |
| CCOC(=O)c1ccccc1C(=O)OCC [Diethyl phthalate] | 100 | 0.000546 (≈ 0.00246 µM) | 4 | Cross-reactivity ([1]; listed as diethyl phthalate): high reactivity |
| COC(=O)c1ccccc1C(=O)OC [Dimethyl phthalate] | 0.556 | 0.098178 (≈ 0.506 µM) | 1.2 | Cross-reactivity ([1]; listed as dimethyl phthalate): about 0.56% |
| C/C(=C(/C)c1ccc(O)cc1)c1ccc(O)cc1 [Dimethyl stilbestrol] | <0.001 | – | – | Cross-reactivity ([1]; listed as dimethyl stilbestrol): does not show substantial cross-reactivity |
| CCOC(C)=O [Ethyl acetate] | 0.012 | 4.480033 | – | – |
| CCOC(=O)c1ccccc1 [Ethyl benzoate] | 0.012 | 4.391316 (≈ 29.2 µM) | – | – |
| CCOC=O [Ethyl formate] | 0.018 | 3.001226 | – | – |
| O=C(O)c1ccccc1C(=O)O [Phthalic acid] | <0.001 | – | – | – |
| CCCCOC(=O)c1ccccc1C(=O)OCc1ccccc1 [benzyl n-butyl phthalate] | – | – | 100 | – |
| CC/C(=C(/CC)c1ccc(O)cc1)c1ccc(O)cc1 [diethyl stilbestrol] | – | – | 1.5 | – |
| nonylphenol | – | – | 3.4 | Cross-reactivity (antiserum RY850): 2.3% |
